Measured values from ChEMBL document CHEMBL3603813, “Quinoline-based antimalarial hybrid compounds” (Bioorg Med Chem, 2015).

How the values were obtained:
[1] = test system: Plasmodium berghei; experiment: Antimalarial activity against Plasmodium berghei infected in mouse assessed as reduction in parasitemia at 44 to 46 mg/kg, po; format: functional
[2] = test system: Plasmodium falciparum; experiment: Antiplasmodial activity against CQ-resistant Plasmodium falciparum FcB1; format: functional
[3] = test system: Plasmodium falciparum; experiment: Antiplasmodial activity against CQ-resistant Plasmodium falciparum FcM29; format: functional
[4] = Inhibition of beta-hematin formation; format: physicochemical
[5] = test system: Plasmodium falciparum; experiment: Antiplasmodial activity against CQ-resistant Plasmodium falciparum Dd2; format: functional, organism-based
[6] = test system: Plasmodium falciparum; experiment: Antiplasmodial activity against CQ-sensitive Plasmodium falciparum D6; format: functional
[7] = test system: Plasmodium berghei; experiment: Antimalarial activity against Plasmodium berghei infected in mouse assessed as inhibition of parasite multiplication at 5 mg/kg/day administered for 4 days measured after 7 days; format: functional
[8] = test system: Plasmodium falciparum; experiment: Antiplasmodial activity against CQ-resistant Plasmodium falciparum FCR3; format: functional, organism-based

Clc1ccc2c(NCCCN3CCC(NC(c4ccccn4)c4ccccn4)CC3)ccnc2c1 [DM-1157]
inhibition (INH) [1]: >99.9%

C[C@@H]1CC[C@H]2[C@@H](C)C(=O)O[C@@H]3O[C@@]4(C)CC[C@@H]1[C@]32OO4 [ARTEMISININ]
Activity [2]: 10 nM | Activity [3]: 18 nM

CCN(CC)CCCC(C)Nc1ccnc2cc(Cl)ccc12 (configuration not stated) [CHLOROQUINE]
inhibition (INH) [4]: 94% | Activity [5]: 102 nM | Activity [2]: 145 nM | Activity [3]: 735 nM | Activity [6]: 7 nM

Clc1ccc2c(Sc3ncnc4[nH]cnc34)ccnc2c1
inhibition in vivo at 5 mg/kg/day [7]: 70%

Clc1ccc2c(NCCN3CCC(NC(c4ccccn4)c4ccccn4)CC3)ccnc2c1
inhibition (INH) [1]: >99.9%

O=[N+]([O-])c1ccccc1S(=O)(=O)N1CCN(c2ccnc3cc(Cl)ccc23)CC1
IC50 [8]: 1.2 µM

CCCS(=O)(=O)N1CCN(c2ccnc3cc(Cl)ccc23)CC1
IC50 [8]: 1.2 µM
